Test results as given in patent US11512053B2, “Arginine methyltransferase inhibitors and uses thereof” (priority 2013, dated 2022).
pIC50: −log10 of the molar value. Counter-ions that a name gives are not always drawn. Like-named read-outs stand apart in the source and are kept apart here.

Target: full-length human PRMT6 (Flag- and His-tagged) (Homo sapiens, UniProt Q96LA8)
Assay: PRMT6 Biochemical Assay (3H-SAM Flashplate, peptide substrate)
Conditions: read-out: Biochemical IC50 PRMT6
How it was run: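 Flag/His-tagged full-length human PRMT6 (1 nM) preincubated with compound 30 min at room temperature in Bicine pH 7.6 buffer, then reaction started with 3H-SAM 200 nM plus unlabeled SAM 250 nM and biotinylated H4 36-50 peptide (K44me1) 75 nM; 2% DMSO. Quenched with 400 uM cold SAM; labeled peptide captured on streptavidin Flashplate, counted; % inhibition vs DMSO and 1 mM SAH controls fit by 3- or 4-parameter curve.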

[1] = single experiment or average of multiple experiments

Chain of full-length human PRMT6 (Flag- and His-tagged) (Q96LA8 with tags, fused parts or gaps): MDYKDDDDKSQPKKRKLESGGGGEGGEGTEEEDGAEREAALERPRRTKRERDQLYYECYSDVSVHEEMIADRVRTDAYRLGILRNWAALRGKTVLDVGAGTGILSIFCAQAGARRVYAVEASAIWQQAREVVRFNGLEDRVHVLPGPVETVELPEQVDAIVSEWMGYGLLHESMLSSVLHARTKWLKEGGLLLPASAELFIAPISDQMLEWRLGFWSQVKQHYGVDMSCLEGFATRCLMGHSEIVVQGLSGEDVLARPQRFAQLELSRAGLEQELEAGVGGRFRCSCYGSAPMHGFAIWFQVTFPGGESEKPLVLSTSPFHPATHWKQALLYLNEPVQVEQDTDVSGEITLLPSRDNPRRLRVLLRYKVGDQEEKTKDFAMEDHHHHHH

Compound | pIC50 | pIC50 [1]
CNCCN(C)Cc1c[nH]nc1C1CCC(C)(C)[C@H](OCCCOC)C1 (some centres unmarked) [Compound 272] | > 7.00 | 7.13
CNCCN(C)Cc1c[nH]nc1C1CCC(C)(C)[C@H](OCC2CCOCC2)C1 (stereo partly drawn) [Compound 273, ({3-[(3R)-4,4-dimethyl-3-(oxan-4-ylmethoxy)cyclohexyl]-1H-pyrazol-4-yl}methyl)(methyl)[2-(methylamino)ethyl]amine] | > 7.00 | 7.39
CNCCN(C)Cc1ccnn1C1CCC2(CC1)CC(C)(C)CO2 (centres unmarked) [Compound 274, trifluoroacetate] | 6.00 to 7.00 | 6.99
CNCCN(C)Cc1ccnn1C1CCC2(CCCC2)CC1 [Compound 275, Methyl[2-(methylamino)ethyl][(1-[spiro[4.5]decan-8-yl]-1H-pyrazol-5-yl)methyl]amine trifluoroacetate] | > 7.00 | 7.73
